Laboratory results from PubChem BioAssay (NCI).
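Method: 48-hour compound exposure of cells in 96-well plates, five concentrations, linear interpolation of endpoints. Definition used: TGI = concentration required for complete inhibition of growth.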

Key:
Assay in all cases: growth of human tumour cells (NCI), 48 h
NCI-H23 lung = test system: NCI-H23 lung
OVCAR-8 ovarian = test system: OVCAR-8 ovarian
COLO 205 colon = test system: COLO 205 colon
MOLT-4 leukemia = test system: MOLT-4 leukemia
MALME-3M melanoma = test system: MALME-3M melanoma
HCT-15 colon = test system: HCT-15 colon
HCC-2998 colon = test system: HCC-2998 colon
A498 renal = test system: A498 renal
SF-268 CNS = test system: SF-268 CNS
SF-539 CNS = test system: SF-539 CNS
HOP-62 NSCLC = test system: HOP-62 NSCLC
NCI-H460 lung = test system: NCI-H460 lung
RPMI-8226 leukemia = test system: RPMI-8226 leukemia
SN12C renal = test system: SN12C renal
UACC-62 melanoma = test system: UACC-62 melanoma
OVCAR-3 ovarian = test system: OVCAR-3 ovarian
CAKI-1 renal = test system: CAKI-1 renal
SW-620 colon = test system: SW-620 colon
SNB-19 CNS = test system: SNB-19 CNS
M14 melanoma = test system: M14 melanoma

Row | SMILES | TGI (NCI-H23 lung) | TGI (OVCAR-8 ovarian) | TGI (COLO 205 colon) | TGI (MOLT-4 leukemia) | TGI (MALME-3M melanoma) | TGI (HCT-15 colon) | TGI (HCC-2998 colon) | TGI (A498 renal) | TGI (SF-268 CNS) | TGI (SF-539 CNS) | TGI (HOP-62 NSCLC) | TGI (NCI-H460 lung) | TGI (RPMI-8226 leukemia) | TGI (SN12C renal) | TGI (UACC-62 melanoma) | TGI (OVCAR-3 ovarian) | TGI (CAKI-1 renal) | TGI (SW-620 colon) | TGI (SNB-19 CNS) | TGI (M14 melanoma)
1 | Cc1ccc(C2COc3cc(O)c(O)cc3C2)cc1 (stereo not drawn) | 65.6 µM | 44.7 µM | 26.2 µM | 18.6 µM | 48.9 µM | 31.8 µM | 172 µM | 130 µM | 49.3 µM | 68.4 µM | 266 µM | 236 µM | 37.9 µM | 103 µM | 77.2 µM | 23.1 µM | 38.1 µM | 34.5 µM | 251 µM | 
2 | CO/N=C\c1cc(O)c(O)c(/C=N/OC)c1 | 99.4 µM | > 100 µM | > 100 µM | > 100 µM | > 100 µM | > 100 µM | > 100 µM | > 100 µM | > 100 µM | > 100 µM | > 100 µM | > 100 µM | > 100 µM | > 100 µM | > 100 µM | > 100 µM | > 100 µM | > 100 µM | > 100 µM | > 100 µM
3 | O=C(c1ccccc1)c1nc2ccc(Cl)cc2c2c1CCCO2 | > 100 µM | > 100 µM | > 100 µM | > 100 µM | > 100 µM | > 100 µM | > 100 µM |  | > 100 µM |  | > 100 µM | > 100 µM | > 100 µM | > 100 µM | > 100 µM | > 100 µM | > 100 µM | > 100 µM | > 100 µM | > 100 µM
4 | Cc1nc2[nH]ncn2c(=O)c1CCCl | > 10 µM | > 10 µM | > 10 µM | > 10 µM | > 10 µM | > 10 µM | > 10 µM | > 10 µM | > 10 µM | > 10 µM | > 10 µM | > 10 µM | > 10 µM | > 10 µM | > 10 µM |  | > 10 µM | > 10 µM | > 10 µM | > 10 µM
5 | OCc1cc2ccncc2c2c1[nH]c1ccccc12 | 48.2 µM | 49.3 µM | 29.4 µM | > 100 µM | 24.6 µM | 91.5 µM | 22.1 µM | 19.6 µM | 34.2 µM | 14.8 µM |  | 19.5 µM | 37.2 µM | 30.3 µM |  |  | 17.9 µM | 19.7 µM |  | 43.8 µM
6 | COc1cc(C(=O)CC2OC(=O)C(Cl)=C2Cl)ccc1Cl (stereo not drawn) | > 100 µM | > 100 µM | > 100 µM | > 100 µM | > 100 µM | > 100 µM | > 100 µM | > 100 µM | > 100 µM | > 100 µM | > 100 µM | > 100 µM | > 100 µM | > 100 µM | > 100 µM | > 100 µM | > 100 µM | > 100 µM | > 100 µM | > 100 µM
7 | O=C(c1ccccc1)C1C(c2ccccc2)N1S(=O)(=O)c1ccccc1 (stereo not drawn) | > 100 µM | > 100 µM | > 100 µM | > 100 µM | > 100 µM | > 100 µM | > 100 µM |  | > 100 µM | > 100 µM | > 100 µM |  | > 100 µM | > 100 µM | > 100 µM | > 100 µM | > 100 µM | > 100 µM |  | > 100 µM
8 | C[C@]12CC[C@@H]3c4ccc(O)cc4CC[C@H]3[C@@H]1CC[C@@H]2OC(=O)CCc1ccccc1 | 34.6 µM | 51 µM | 37.1 µM | 40.3 µM | 34.8 µM | 33 µM | 36.6 µM | 32.6 µM | 35.8 µM |  | 55.9 µM | 42.6 µM | 35.6 µM | 49.6 µM | 28.8 µM | 61.6 µM | 37.7 µM | 64.7 µM | 37.7 µM | 37.8 µM
